The source made the active and inactive calls. The calls are words filed in the database; no cut-off is given here.
What was measured:
Details in all cases: time 25-30 min
[1] = molecular target: Human immunodeficiency virus type 1 reverse transcriptase (Human immunodeficiency virus 1) (UniProt Q72547); experiment: Inhibition of HIV-1 reverse transcriptase using 5'-Cy5CAGGAAACAGCTATGAC/3'-GTCCTTTGTCGATACTGTTTTTTT-5' as primer/template at 1 mM preincubated for 20 min followed by dATP addition measured after 5 to 10 mins by gel electrophoresis analysis
[2] = molecular target: Human immunodeficiency virus type 1 reverse transcriptase (Human immunodeficiency virus 1) (UniProt Q72547); experiment: Inhibition of HIV-1 reverse transcriptase using 5'-Cy5CAGGAAACAGCTATGAC/3'-GTCCTTTGTCGATACTGTTTTTTT-5' as primer/template at 10 mM preincubated for 20 min followed by dATP addition measured after 5 to 10 mins by gel electrophoresis analysis
[3] = molecular target: Human immunodeficiency virus type 1 reverse transcriptase (Human immunodeficiency virus 1) (UniProt Q72547); experiment: Inhibition of HIV-1 reverse transcriptase using 5'-Cy5CAGGAAACAGCTATGAC/3'-GTCCTTTGTCGATACTGTTTTTTT-5' as primer/template at 5 mM preincubated for 20 min followed by dATP addition measured after 5 to 10 mins by gel electrophoresis analysis

SMILES	inhibition [1]	inhibition [2]	inhibition [3]
Nc1ncnc2c1ncn2CCN[C@@H](CP(=O)(O)O)C(=O)O	inactive	inactive	
Nc1ncnc2c1ncn2CCCN[C@H](CP(=O)(O)O)C(=O)O	inactive	Active	Active
C[C@H](Cn1cnc2c(N)ncnc21)N(CCP(=O)(O)O)CC(=O)O	inactive	Active	Active
Nc1ncnc2c1ncn2CCCOC(CP(=O)(O)O)C(=O)O (centres undefined)	inactive	Active	Active
Nc1ncnc2c1ncn2CCN[C@H](CP(=O)(O)O)C(=O)O	inactive	inactive	

Other lines, results leading:

inhibition [1]	inhibition [2]	inhibition [3]	SMILES
inactive	Active	Active	Nc1ncnc2c1ncn2CCOC(CP(=O)(O)O)C(=O)O (racemic)
inactive	Active	Active	Nc1ncnc2c1ncn2CCN[C@@H](CO)C(=O)NP(=O)(O)O
